Assays:
[1] = tested on: Control (random sequence) (RNA, other) CUGAAGGCAGUCCGGUGCCCGGCCGGG; experiment: electrochemical impedance (EIS); details: 0.1 M KCl, 3 mM MgCl2; PBS, pH about 7, 15 min incubation; tested up to 500 mM
[2] = tested on: Aptamer 2 (Apt2) (RNA, aptamer) UCGCGUCUAGCCCAUUGAUAGGCCCGA; experiment: electrochemical impedance (EIS), Langmuir-Hill fit; details: 0.1 M KCl, 3 mM MgCl2; PBS, pH about 7, 1 mM [Fe(CN)6]3-/4-, 15 min incubation
[3] = tested on: Aptamer 3 (Apt3) (RNA, aptamer) UCCACGUGGUGCCAUACUCCGGCGUGG; experiment: electrochemical impedance (EIS), Langmuir-Hill fit; details: 0.1 M KCl, 3 mM MgCl2; PBS, pH about 7, 1 mM [Fe(CN)6]3-/4-, 15 min incubation
[4] = tested on: Aptamer 1 (Apt1) (RNA, aptamer) CCAUGUAAGCGCGGUACUCUUACGUGA; experiment: electrochemical impedance (EIS), Langmuir-Hill fit; details: 0.1 M KCl, 3 mM MgCl2; PBS, pH about 7, 1 mM [Fe(CN)6]3-/4-, 15 min incubation
[5] = tested on: Aptamer 4 (Apt4) (RNA, aptamer) CCUCUCAGGCUUGUACUGCCACGAGGA; experiment: electrochemical impedance (EIS), Langmuir-Hill fit; details: 0.1 M KCl, 3 mM MgCl2; PBS, pH about 7, 1 mM [Fe(CN)6]3-/4-, 15 min incubation; decimal comma as printed
[6] = tested on: Aptamer 5 (Apt5) (RNA, aptamer) GCCCUGGGCCGCUCAUUCCCUCUGGCU; experiment: electrochemical impedance (EIS), Langmuir-Hill fit; details: 0.1 M KCl, 3 mM MgCl2; PBS, pH about 7, 1 mM [Fe(CN)6]3-/4-, 15 min incubation
[7] = tested on: Aptamer 3 (Apt3) (RNA, aptamer) UCCACGUGGUGCCAUACUCCGGCGUGG; experiment: electrochemical impedance (EIS); details: 0.1 M KCl, 3 mM MgCl2; 100 µM; response about 15 times lower than with NH4+
[8] = tested on: Aptamer 1 (Apt1) (RNA, aptamer) CCAUGUAAGCGCGGUACUCUUACGUGA; experiment: electrochemical impedance (EIS); details: 0.1 M KCl, 3 mM MgCl2; 100 µM; response about 15 times lower than with NH4+
[9] = tested on: Aptamer 2 (Apt2) (RNA, aptamer) UCGCGUCUAGCCCAUUGAUAGGCCCGA; experiment: electrochemical impedance (EIS); details: 0.1 M KCl, 3 mM MgCl2; 100 µM; response about 15 times lower than with NH4+

SMILES	binding [1]	Kd [2] [mM]	Kd [3] [mM]	Kd [4] [mM]	Kd [5]	Kd [6] [mM]	binding [7]	binding [8]	binding [9]
N	no	16.11	131	36.59	6,6 mM	50	–	–	–
CN(C)C	–	–	–	–	–	–	weak	weak	weak
CNC	–	–	–	–	–	–	weak	weak	weak
